Experiment [1] addresses T1, Piezo1 (Mus musculus, UniProt E2JF22).
T1 construct: native channel in freshly isolated brain capillary endothelial cells
The experiment is described as follows: single-channel patch clamp (cell-attached concentration-response with Yoda1; outside-out patches with PIP2 in pipette). The experiment is classed as cell-based. In general terms: Patch clamp records ionic current or voltage across a cell membrane.

In experiment [2] the target is T2, Piezo1 (Mus musculus, UniProt E2JF22, R2482H).
T2 construct: mutant channel in capillary endothelial cells of Piezo1EC-Mutant mice
T2 sequence (E2JF22 whole entry R2482H): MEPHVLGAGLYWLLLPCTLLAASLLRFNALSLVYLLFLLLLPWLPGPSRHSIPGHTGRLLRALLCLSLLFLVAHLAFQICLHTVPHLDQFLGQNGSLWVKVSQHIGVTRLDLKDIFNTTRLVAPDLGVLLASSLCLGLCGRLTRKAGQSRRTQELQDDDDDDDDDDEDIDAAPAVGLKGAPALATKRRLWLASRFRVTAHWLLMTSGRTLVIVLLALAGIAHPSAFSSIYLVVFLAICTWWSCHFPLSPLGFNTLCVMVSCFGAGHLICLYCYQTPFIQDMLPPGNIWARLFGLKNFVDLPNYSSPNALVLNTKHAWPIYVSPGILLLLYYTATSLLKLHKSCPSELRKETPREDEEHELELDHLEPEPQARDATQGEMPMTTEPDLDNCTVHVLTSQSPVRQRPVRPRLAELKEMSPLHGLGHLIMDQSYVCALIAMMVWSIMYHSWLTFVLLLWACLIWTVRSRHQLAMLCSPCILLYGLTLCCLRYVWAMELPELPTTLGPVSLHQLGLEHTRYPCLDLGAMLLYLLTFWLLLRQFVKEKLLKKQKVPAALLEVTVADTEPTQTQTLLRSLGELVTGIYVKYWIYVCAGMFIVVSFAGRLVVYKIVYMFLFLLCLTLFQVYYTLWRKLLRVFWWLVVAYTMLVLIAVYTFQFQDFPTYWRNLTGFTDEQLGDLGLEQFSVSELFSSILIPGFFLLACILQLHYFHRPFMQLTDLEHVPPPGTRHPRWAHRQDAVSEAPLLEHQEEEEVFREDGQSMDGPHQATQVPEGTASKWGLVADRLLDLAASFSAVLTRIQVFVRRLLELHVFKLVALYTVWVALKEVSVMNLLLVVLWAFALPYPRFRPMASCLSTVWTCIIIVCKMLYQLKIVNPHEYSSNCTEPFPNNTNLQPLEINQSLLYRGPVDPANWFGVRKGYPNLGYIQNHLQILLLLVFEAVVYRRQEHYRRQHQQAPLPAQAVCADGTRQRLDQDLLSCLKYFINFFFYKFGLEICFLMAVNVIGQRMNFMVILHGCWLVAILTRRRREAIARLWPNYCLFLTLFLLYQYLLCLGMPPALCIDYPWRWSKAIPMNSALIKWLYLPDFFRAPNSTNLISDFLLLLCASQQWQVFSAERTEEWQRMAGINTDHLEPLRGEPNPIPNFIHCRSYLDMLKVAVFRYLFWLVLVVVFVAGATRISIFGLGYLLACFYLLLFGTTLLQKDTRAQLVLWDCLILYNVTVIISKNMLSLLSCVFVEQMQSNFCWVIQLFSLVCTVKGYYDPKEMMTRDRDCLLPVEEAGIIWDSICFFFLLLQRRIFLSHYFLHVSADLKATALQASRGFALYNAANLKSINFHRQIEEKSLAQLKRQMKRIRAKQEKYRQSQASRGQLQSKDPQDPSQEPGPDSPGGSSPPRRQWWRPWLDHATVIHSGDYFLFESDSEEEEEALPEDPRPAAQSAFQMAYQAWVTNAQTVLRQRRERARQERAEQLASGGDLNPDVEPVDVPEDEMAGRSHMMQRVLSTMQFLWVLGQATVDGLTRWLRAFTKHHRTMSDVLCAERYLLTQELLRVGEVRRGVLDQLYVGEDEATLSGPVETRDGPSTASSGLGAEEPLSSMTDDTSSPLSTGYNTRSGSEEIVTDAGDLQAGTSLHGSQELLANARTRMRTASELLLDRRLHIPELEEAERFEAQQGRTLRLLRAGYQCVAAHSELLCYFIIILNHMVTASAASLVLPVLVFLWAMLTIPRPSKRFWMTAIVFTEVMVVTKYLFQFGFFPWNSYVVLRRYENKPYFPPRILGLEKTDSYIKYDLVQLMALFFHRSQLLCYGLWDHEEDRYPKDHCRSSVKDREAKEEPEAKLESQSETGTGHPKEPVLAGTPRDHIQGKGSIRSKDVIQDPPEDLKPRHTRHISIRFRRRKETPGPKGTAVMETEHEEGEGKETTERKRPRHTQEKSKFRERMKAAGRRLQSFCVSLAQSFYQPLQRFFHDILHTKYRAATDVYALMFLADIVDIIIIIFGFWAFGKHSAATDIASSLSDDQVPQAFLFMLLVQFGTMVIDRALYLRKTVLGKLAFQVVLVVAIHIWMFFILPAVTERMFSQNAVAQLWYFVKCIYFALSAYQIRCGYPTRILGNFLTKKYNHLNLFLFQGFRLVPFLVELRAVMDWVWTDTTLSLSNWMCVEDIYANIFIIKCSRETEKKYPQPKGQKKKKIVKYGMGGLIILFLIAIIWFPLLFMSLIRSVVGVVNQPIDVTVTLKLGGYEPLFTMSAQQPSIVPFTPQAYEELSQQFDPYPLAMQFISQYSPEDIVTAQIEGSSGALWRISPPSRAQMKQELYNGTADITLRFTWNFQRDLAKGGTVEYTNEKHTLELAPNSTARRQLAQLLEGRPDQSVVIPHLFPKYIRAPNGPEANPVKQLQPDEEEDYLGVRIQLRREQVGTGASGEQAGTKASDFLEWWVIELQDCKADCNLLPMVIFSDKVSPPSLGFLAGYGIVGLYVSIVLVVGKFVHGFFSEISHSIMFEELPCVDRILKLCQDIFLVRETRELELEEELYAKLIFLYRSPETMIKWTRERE
As to the kind of experiment: cell-attached single-channel patch clamp, […] PIP2, no Yoda1 ([…] inhibition). The format is cell-based.

The structures appear in SMILES notation.

T1 sequence (E2JF22 whole entry): as the sequence (E2JF22 whole entry R2482H) above, with H2482R counted along it

Usually IC50 stands for the concentration that inhibits the measured activity by half. A lower IC50 goes with higher potency. The term inhibition denotes the relative decrease from the control value, in per cent. Higher therefore signals a strong effect. In turn, `CCCCCCCCCCCCCCCC(=O)OC[C@H](COP(=O)(O)O[C@@H]1[C@H](O)[C@H](O)[C@@H](OP(=O)(O)O)[C@H](OP(=O)(O)O)[C@H]1O)OC(=O)CCCCCCCCCCCCCCC` [diC16-PIP2] came in with an IC50 at Piezo1 [1] of about 300 nM. The same compound came in with an inhibition at 10 µM against Piezo1 [2] of 50%.
